What follows are molecules tested on Aβ42 production (assay: Quantification of Aβ peptide in culture of neurons from rat fetus brain (Aβ42 ELISA)). Settings: Neuron, 72 h, rat primary neuronal culture (embryonic day 18 Wistar rat cerebral cortex), medium collected three days after addition of compound, read-out: Aβ42 production reducing effect IC50.
Format: cell-based
Experimental: Quantification of Aβ Peptide in Culture of Neurons from Rat Fetus Brain
Primary neuronal cultures were prepared from the cerebral cortex of embryonic day 18 Wistar rats (Charles River Japan, Yokohama, Japan). Specifically, the embryos were aseptically removed from pregnant rats under ether anesthesia. The brain was isolated from the embryo and immersed in an ice-cold L-15 medium (such as Invitrogen Corp. Cat #11415-064, Carlsbad, Calif., USA, or SIGMA L1518). The cerebral cortex was collected from the isolated brain under a stereoscopic microscope. The cerebral cortex fragments collected were enzymatically treated in an enzyme solution containing 0.25% trypsin (Invitrogen Corp. Cat #15050-065, Carlsbad, Calif., USA) and 0.01% DNase (Sigma D5025, St. Louis, Mo., USA) at 37° C. for 30 minutes to disperse the cells. Here, the enzymatic reaction was stopped by adding inactivated horse serum to the solution. The enzymatically treated solution was centrifuged at 1,500 rpm for five minutes to remove the supernatant. 5 to 10 ml of a medium was added to the resulting cell mass. Neurobasal medium (Invitrogen Corp. Cat #21103-049, Carlsbad, Calif., USA) supplemented with 2% B27 supplement (Invitrogen Corp. Cat #17504-044, Carlsbad, Calif., USA), 25 μM 2-mercaptoethanol (2-ME, WAKO Cat #139-06861, Osaka, Japan), 0.5 mM L-glutamine (Invitrogen Corp. Cat #25030-081, Carlsbad, Calif., USA), and Antibiotics-Antimycotics (Invitrogen Corp. Cat #15240-062, Carlsbad, Calif., USA) was used as the medium (Neurobasal/B27/2-ME). However, the above Neurobasal medium not supplemented with 2-ME (Neurobasal/B27) was used for the assay. The cells were redispersed by mild pipetting of the cell mass to which the medium was added. The cell dispersion was filtered through a 40-μm nylon mesh (Cell Strainer, Cat #35-2340, Becton Dickinson Labware, Franklin Lakes, N.J., USA) to remove the remaining cell mass, and thus a neuronal cell suspension was obtained. The neuronal cell suspension was diluted with the medium and then plated in a volume of 100 μl/well at an initial cell density of 5×10^5 cells/cm^2 in a 96-well polystyrene culture plate pre-coated with poly-L or D-lysine (Falcon Cat #35-3075, Becton Dickinson Labware, Franklin Lakes, N.J., USA coated with poly-L-lysine using the method shown below, or BIOCOAT™ cell environments Poly-D-lysine cell ware 96-well plate, Cat #35-6461, Becton Dickinson Labware, Franklin Lakes, N.J., USA). Poly-L-lysine coating was carried out as follows. 100 μg/ml of a poly-L-lysine (SIGMA P2636, St. Louis, Mo., USA) solution was aseptically prepared with a 0.15 M borate buffer (pH 8.5). […] of the solution was added to the 96-well polystyrene culture plate and incubated at room temperature for one or more hours or at 4° C. overnight or longer. Thereafter, the coated 96-well polystyrene culture plate was washed with sterile water four or more times, and then dried or rinsed with, for example, sterile PBS or medium, and used for cell plating. The plated cells were cultured in the culture plate at 37° C. in 5% CO2-95% air for one day. Then, the total amount of the medium was replaced with a fresh Neurobasal/B27/2-ME medium, and then the cells were cultured for further three days.
The drug was added to the culture plate on Day 4 of culture as follows. The total amount of the medium was removed from the wells, and 180 μl/well of Neurobasal medium not containing 2-ME and containing 2% B-27 (Neurobasal/B27) was added thereto. A solution of the test compound in dimethyl sulfoxide (hereinafter abbreviated as DMSO) was diluted with Neurobasal/B27 to a concentration 10-fold higher than the final concentration. 20 μl/well of the dilution was added to and sufficiently mixed with the medium. The final DMSO concentration was 1% or less. Only DMSO was added to the control group.
The cells were cultured for three days after addition of the compound, and the total amount of the medium was collected. […]

Row | SMILES | IC50
1 | NC1=N[C@@]2(c3cc(-c4cccnc4F)ccc3F)COCC[C@H]2CS1 (racemic) [Example 61, (±)-(4aR*,8aS*)-8a-[2-fluoro-5-(2-fluoropyridin-3-yl)phenyl]-4,4a,5,6,8,8a-hexahydro-7-oxa-3-thia-1-azanaphthalen-2-ylamine] | 319 nM
2 | NC1=N[C@@]2(c3cc(-c4cccnc4F)cs3)COCC[C@H]2CS1 (racemic) [Example 65, (±)-(4aR*,8aR*1-8a-[4-(2-fluoropyridin-3-yl)-thiophen-2-yl]-4,4a,5,6,8,8a-hexahydro-7-oxa-3-thia-1-azanaphthalen-2-ylamine] | 370 nM
3 | N#Cc1ccc(C(=O)Nc2ccc(F)c([C@]34COCC[C@H]3CSC(N)=N4)c2)nc1 (relative stereo) [Example 1, N-[3-((4aR*,8aS*)-2-amino-4,4a,5,6-tetrahydro-7-oxa-3-thia-1-azanaphthalen-8a-yl)-4-fluorophenyl]-5-cyanopyridine-2-carboxamide] | 1.7 nM
4 | NC1=N[C@@]2(c3cc(NC(=O)c4cnc(OCF)cn4)ccc3F)COCC[C@H]2CS1 (relative stereo) [Example 2, N-[348S*,8aR*)-2-amino-4,4a,5,6-tetrahydro-7-oxa-3-thia-1-azanaphthalen-8a-yl)-4-fluorophenyl]-5-fluoromethoxypyrazine-2-carboxamide] | 2 nM
5 | NC1=N[C@@]2(c3cc(NC(=O)c4cnc(OC(F)F)cn4)ccc3F)COCC[C@H]2CS1 (relative stereo) [Example 3, N-[3-((4aR*,8aS*)-2-amino-4,4a,5,6-tetrahydro-7-oxa-3-thia-1-azanaphthalen-8a-yl)-4-fluorophenyl]-5-difluoromethoxypyrazine-2-carboxamide] | 1 nM
6 | C[C@H]1C[C@H]2CSC(N)=N[C@@]2(c2cc(NC(=O)c3ccc(Cl)cn3)ccc2F)CO1 (relative stereo) [Example 6, N-[3-((4aR*,6S*,8aS*)-2-amino-6-methyl-4,4a,5,6-tetrahydro-7-oxa-3-thia-1-azanaphthalen-8a-yl)-4-fluorophenyl]-5-chloropyridine-2-carboxamide] | 1.2 nM
7 | C[C@H]1C[C@H]2CSC(N)=N[C@@]2(c2cc(NC(=O)c3ccc(C#N)cn3)ccc2F)CO1 (relative stereo) [Example 7, N-[3-((4aR*,6S*,8aS*)-2-amino-6-methyl-4,4a,5,6-tetrahydro-7-oxa-3-thia-1-azanaphthalen-8a-yl)-4-fluorophenyl]-5-cyanopyridine-2-carboxamide] | 0.7 nM
8 | C[C@H]1C[C@H]2CSC(N)=N[C@@]2(c2cc(NC(=O)c3ccc(C(F)(F)F)cn3)ccc2F)CO1 (relative stereo) [Example 8, N-[3-((4aR*,6S*,8aS*)-2-amino-6-methyl-4,4a,5,6-tetrahydro-7-oxa-3-thia-1-azanaphthalen-8a-yl)-4-fluorophenyl]-5-trifluoromethylpyridine-2-carboxamide] | 1.6 nM
9 | C[C@H]1C[C@H]2CSC(N)=N[C@@]2(c2cc(NC(=O)c3cnc(OC(F)F)cn3)ccc2F)CO1 (relative stereo) [Example 9, N-[3-((4aR*,6S*,8aS*)-2-amino-6-methyl-4,4a,5,6-tetrahydro-7-oxa-3-thia-1-azanaphthalen-8a-yl)-4-fluorophenyl]-5-difluoromethoxypyrazine-2-carboxamide] | 0.6 nM
10 | C[C@H]1C[C@H]2CSC(N)=N[C@@]2(c2cc(NC(=O)c3cnc(OCF)cn3)ccc2F)CO1 (relative stereo) [Example 10, N-[3-((4aR*,6S*,8aS*)-2-amino-6-methyl-4,4a,5,6-tetrahydro-7-oxa-3-thia-1-azanaphthalen-8a-yl)-4-fluorophenyl]-5-fluoromethoxypyrazine-2-carboxamide] | 1 nM
11 | COC[C@H]1C[C@H]2CSC(N)=N[C@@]2(c2cc(NC(=O)c3ccc(C#N)cn3)ccc2F)CO1 (relative stereo) [Example 11, N-[3-((4aR*,6R*,8aS*)-2-amino-6-methoxymethyl-4,4a,5,6-tetrahydro-7-oxa-3-thia-1-azanaphthalen-8a-yl)-4-fluorophenyl]-5-cyanopyridine-2-carboxamide] | 0.7 nM
12 | COC[C@H]1C[C@H]2CSC(N)=N[C@@]2(c2cc(NC(=O)c3cnc(C(F)F)cn3)ccc2F)CO1 (relative stereo) [Example 12, N-[3-((4aR*,6R*,8aS*)-2-amino-6-methoxymethyl-4,4a,5,6-tetrahydro-7-oxa-3-thia-1-azanaphthalen-8a-yl)-4-fluorophenyl]-5-difluoromethylpyrazine-2-carboxamide] | 1.1 nM
13 | COC[C@H]1C[C@H]2CSC(N)=N[C@@]2(c2cc(NC(=O)c3ccc(Cl)cn3)ccc2F)CO1 (relative stereo) [Example 13, N-[3-((4aR*,6R*,8aS*)-2-amino-6-methoxymethyl-4,4a,5,6-tetrahydro-7-oxa-3-thia-1-azanaphthalen-8a-yl)-4-fluorophenyl]-5-chloropyridine-2-carboxamide] | 1 nM
14 | COC[C@H]1C[C@H]2CSC(N)=N[C@@]2(c2cc(NC(=O)c3cnc(OCF)cn3)ccc2F)CO1 (relative stereo) [Example 14, N-[3-((4aR*,6R*,8aS*)-2-amino-6-methoxymethyl-4,4a,5,6-tetrahydro-7-oxa-3-thia-1-azanaphthalen-8a-yl)-4-fluorophenyl]-5-fluoromethoxypyrazine-2-carboxamide] | 0.8 nM
15 | COC[C@H]1C[C@H]2CSC(N)=N[C@@]2(c2cc(NC(=O)c3cnc(OC(F)F)cn3)ccc2F)CO1 (relative stereo) [Example 15, N-[3-((4aR*,6R*,8aS*)-2-amino-6-methoxymethyl-4,4a,5,6-tetrahydro-7-oxa-3-thia-1-azanaphthalen-8a-yl)-4-fluorophenyl]-5-difluoromethoxypyrazine-2-carboxamide] | 0.4 nM
16 | C[C@@H]1COC[C@]2(c3cc(NC(=O)c4ccc(Cl)cn4)ccc3F)N=C(N)SC[C@H]12 (relative stereo) [Example 23, N-[3-((4aR*,5S*,8aS*)-2-amino-5-methyl-4,4a,5,6-tetrahydro-7-oxa-3-thia-1-azanaphthalen-8a-yl)-4-fluorophenyl]-5-chloropyridine-2-carboxamide] | 12 nM
17 | C[C@@H]1COC[C@]2(c3cc(NC(=O)c4ccc(C#N)cn4)ccc3F)N=C(N)SC[C@H]12 (relative stereo) [Example 24, N-[3-((4aR*,5S*,8aS*)-2-amino-5-methyl-4,4a,5,6-tetrahydro-7-oxa-3-thia-1-azanaphthalen-8a-yl)-4-fluorophenyl]-5-cyanopyridine-2-carboxamide] | 9 nM
18 | C[C@@H]1COC[C@]2(c3cc(NC(=O)c4cnc(OC(F)F)cn4)ccc3F)N=C(N)SC[C@H]12 (relative stereo) [Example 25, N-[3-((4aR*,5S*,8aS*)-2-amino-5-methyl-4,4a,5,6-tetrahydro-7-oxa-3-thia-1-azanaphthalen-8a-yl)-4-fluorophenyl]-5-difluoromethoxypyrazine-2-carboxamide] | 14 nM
19 | C[C@H]1COC[C@]2(c3cc(NC(=O)c4ccc(Cl)cn4)ccc3F)N=C(N)SC[C@H]12 (relative stereo) [Example 26, N-[3-((4aR*,5R*,8aS*)-2-amino-5-methyl-4,4a,5,6-tetrahydro-7-oxa-3-thia-1-azanaphthalen-8a-yl)-4-fluorophenyl]-5-chloropyridine-2-carboxamide] | 3 nM
